Several values for one entry are separate records, joined by “and”; a condition that tells them apart may be missing. Equal values may be shown once. Entries after “also recorded” stand apart in the source; their conditions may differ. Read-outs that look alike come from different tables or passages of the source.

This series can be described thus: Tissue analysis (internal tissue dose of parent PFAS, bioconcentration factor). In kind it is in vivo, Danio rerio. Particulars: for Parent compound in fish tissue at 6 dpf: Study 1, daily exposure 0–5 dpf; for Bioaccumulation ranking: among chemicals assessed, from BCF values; for BCFdry: 6-d zebrafish assay; for concentration at 6 dpf: zebrafish (Danio rerio), whole larvae (pools of 10, homogenised), other: waterborne exposure in the well medium, 6 dpf larvae, dry weight 44 μg per larva, read-out: Measured tissue dose; for Dil Corrected Reported Conc. (fMole/larvae), measured tissue concentration: zebrafish larvae, replicate samples per experiment/plate. Here is the method: Zebrafish were exposed to 25.1, 44.8, or 80.0μM ADONA, PFOA, PFESA1, or PFHxA, 14.0, 25.1, or 44.8μM PFHxS, or 1.0, 1.8, or 3.1μM PFOS, or 0.4% DMSO. The highest concentration evaluated was the no observed effect concentration (NOEC) determined in Study 1. In Study 2, zebrafish were exposed to 25.1, 44.8, or 80.0μM GenX Free Acid or 0.4% DMSO. According to the previously described microtiter plate inclusion criterion, 15/15 plates were included in the study. Larvae were anesthetized by rapid cooling in chilled 10% HBSS. Groups of 10 anesthetized larvae were pooled to comprise one biological replicate ( n=4 ) in 500μL of 10% HBSS, flash frozen in liquid nitrogen, and stored at −80°C . In the case of ADONA, n=5 .
Tissue samples were prepared by protein precipitation. Flash frozen samples, consisting of pools of ten 6-dpf zebrafish larvae, were homogenized using ∼100mg of 1.0-mm diameter zirconia/silica beads and a Fast-Prep-24™ homogenizer (MP Biomedicals) in 100μL 0.1M formic acid fortified with the surrogate (i.e., PFNA). Protein was precipitated from the homogenate with 400μL of acetonitrile containing internal standards and separated by centrifugation at 14,000 rpm for 15 min at 4°C. Fifty microliters of the extract was diluted with 200μL aqueous 0.4 mM ammonium formate in the LC vial for analysis. Standards and samples were analyzed with Vanquish UPLC and Orbitrap Fusion mass spectrometer (Thermo Electron) operated in negative ESI mode. ESI source conditions were optimized for the [M-H]^− ion of PFAS as follows: spray voltage −3.5 kV , sheath gas 25 au (arbitrary units), aux gas 6 au, sweep gas 0 au, ion transfer tube temperature 300°C, and vaporizer temperature […]. High-resolution accurate mass (HRAM) MS1 scans were collected with the following parameters: detector type orbitrap, orbitrap resolution 30,000 full width at half maximum (FWHM), normal mass range, Use quadrapole isolation=true , scan range 70–700m/z , radio frequency (RF) lens 60%, automatic gain control (AGC) target 4.00×10^5 , max injection time of 50 ms , 1 microscan, data type set to profile, negative polarity, and source fragmentation disabled. Data-dependent orbitrap MSMS (ddMS2-OT) scans were collected for the [M-H]^− ion [ M-H-CO2 for GenX]^– using a target mass list for the eight PFAS and PFNA surrogate for identity confirmation. The apex detection was set to an expected peak width of 2 s at FWHM and desired apex peak window of 30%. The dynamic exclusion parameters were set to exclude after a one-time, 60-s exclusion duration, low and high mass tolerances of 10 ppm , and exclude isotope was set to true. The intensity threshold for collecting an MSMS scan was set to 2.5E+04 . Fragmentation was done by high-energy collisional dissociation (HCD). The ddMS2-OT scans were collected with the following parameters: orbitrap isolation mode, isolation window of 1.6m/z , isolation offset off, stepped HCD collision energy of 30%±10% , scan range of auto mass-to-charge ratio normal, orbitrap resolution of 30,000 FWHM, first mass 75m/z , max injection time of […], AGC target 5.00×10^4 , inject ions from available parallelizable time set to true, max injection time of 54 ms, 1 microscan, and data type set to centroid. UPLC separation was achieved using ACQUITY UPLC BEH C18 Column, 130Å , 1.7μM , 2.1mm×50mm (Waters Corp P/N 186,002,350) at 50°C with gradient elution at a flow rate of 300μL/min using 0.4 mM ammonium formate in acetonitrile and water with a 10-μL injection. Data collection, integration, calibration, and quantitation were performed using Xcalibur software (version 4.1; Thermo Electron). Concentration for each PFAS analyte was determined by internal standard technique using isotopically labeled internal standards and matrix-matched calibration standards. Quantitative analysis was performed using high-resolution MS1-extracted ion chromatograms. […]

The mark [1] stands for this setting: nominal 25.1 μM daily 0–5 dpf, 0.4% DMSO.
The mark [2] stands for this setting: nominal 44.8 μM daily 0–5 dpf, 0.4% DMSO.
[3] abbreviates: nominal 80.0 μM daily 0–5 dpf, 0.4% DMSO.

With `O=C(O)C(F)(F)C(F)OC(F)(F)C(F)(F)C(F)(F)OC(F)(F)F` (centres unmarked) [ADONA, 4,8-Dioxa-3H-perfluorononanoate], the “Bioaccumulation ranking” value is “least bioaccumulative”. The “Parent compound in fish tissue at 6 dpf” value (0.4% DMSO) is listed as “detectable levels”. Further, the BCFdry (nominal 25.1 μM, 0.4% DMSO) turned out to be 0.95 L/kg. For the same molecule, for the setting “nominal 44.8 μM, 0.4% DMSO”, the BCFdry was found to be 0.94 L/kg. Moreover, the BCFdry (nominal 80.0 μM, 0.4% DMSO) came to 0.56 L/kg. In addition, the concentration at 6 dpf under setting [1] is 9490 ± 3100 ng/g. The concentration at 6 dpf under setting [2] was determined as 16000 ± 6290 ng/g. Moreover, the concentration at 6 dpf under setting [3] is 14900 ± 3110 ng/g. Further, the “Dil Corrected Reported Conc. (fMole/larvae), measured tissue concentration” value (exposure Concentration 25.1 µM) is 687.994 fMole/larvae and 814.543 fMole/larvae and 1674.31 fMole/larvae and 986.423 fMole/larvae and 1056.18 fMole/larvae. In addition, the “Dil Corrected Reported Conc. (fMole/larvae), measured tissue concentration” value (exposure Concentration 44.8 µM) is 1721.39 fMole/larvae and 1579.99 fMole/larvae and 1307.54 fMole/larvae and 1119.74 fMole/larvae and 3082.15 fMole/larvae. Moreover, the “Dil Corrected Reported Conc. (fMole/larvae), measured tissue concentration” value (exposure Concentration 80 µM) was 1324.81 fMole/larvae and 2040.26 fMole/larvae and 1665.47 fMole/larvae and 1967.75 fMole/larvae and 1175.25 fMole/larvae.
As for `O=C(O)C(F)(OC(F)(F)C(F)(F)C(F)(F)F)C(F)(F)F` (centres unmarked) [GenX Free Acid, Perfluoro-2-propoxypropanoic acid], the “Parent compound in larval zebrafish tissue” value (GenX Free Acid diluted in DI water (Study 2)) is recorded as “detectable levels; also recorded: detectable in zebrafish tissue”. Also, the “Parent compound in zebrafish tissue at 6 dpf” value (GenX Free Acid diluted in DMSO (Study 1)) is reported as “undetectable”. For the same molecule, the BCFdry by setting is: (nominal 25.1 μM in DI water (Study 2)) 0.45 L/kg; (nominal 44.8 μM in DI water (Study 2)) 0.29 L/kg; (nominal 80.0 μM in DI water (Study 2)) 0.49 L/kg. Besides, the concentration at 6 dpf came to 2480 ± 660 ng/g (nominal 25.1 μM in DI water (Study 2) daily 0–5 dpf), 2020 ± 270 ng/g (nominal 44.8 μM in DI water (Study 2) daily 0–5 dpf) and 5110 ± 1490 ng/g (nominal 80.0 μM in DI water (Study 2) daily 0–5 dpf).
For the molecule `O=S(=O)(O)C(F)(F)C(F)(F)OC(F)(C(F)(F)F)C(F)(F)OC(F)=C(F)F` (centres unmarked) [PFESA1, Perfluoro-3,6-dioxa-4-methyl-7-octene-1-sulfonic acid], the “Bioaccumulation ranking” value was “least bioaccumulative”. For the same molecule, where the note is “0.4% DMSO”, the “Parent compound in fish tissue at 6 dpf” value is “detectable levels”. In addition, the BCFdry (nominal 25.1 μM, 0.4% DMSO) was determined as 3.09 L/kg. For the setting “nominal 44.8 μM, 0.4% DMSO”, the BCFdry was 2.62 L/kg. Under “nominal 80.0 μM, 0.4% DMSO”, the BCFdry is 1.44 L/kg. Besides, under setting [1], the concentration at 6 dpf is 23700 ± 17500 ng/g. Under setting [2], the concentration at 6 dpf was 37000 ± 17400 ng/g. The concentration at 6 dpf under setting [3] was found to be 43200 ± 4840 ng/g. Where the note is “exposure Concentration 25.1 µM”, the “Dil Corrected Reported Conc. (fMole/larvae), measured tissue concentration” value was 4.79E+03 fMole/larvae and 1603 fMole/larvae and 2911 fMole/larvae and 78 fMole/larvae. Moreover, for the setting “exposure Concentration 44.8 µM”, the “Dil Corrected Reported Conc. (fMole/larvae), measured tissue concentration” value is 2778 fMole/larvae and 2495 fMole/larvae. Also, the “Dil Corrected Reported Conc. (fMole/larvae), measured tissue concentration” value (exposure Concentration 80 µM) was 3514 fMole/larvae and 4409 fMole/larvae.
As for `O=C(O)C(F)(F)C(F)(F)C(F)(F)C(F)(F)C(F)(F)F` [PFHxA, Perfluorohexanoic acid], the “Bioaccumulation ranking” value was “least bioaccumulative”. Also, where the note is “nominal 25.1 μM, 0.4% DMSO”, the BCFdry is 0.46 L/kg. The BCFdry (nominal 44.8 μM, 0.4% DMSO) is on record as 0.18 L/kg. The BCFdry (nominal 80.0 μM, 0.4% DMSO) is on record as 0.24 L/kg. Besides, the concentration at 6 dpf under setting [1] came out at 4970 ± 4400 ng/g. In addition, the concentration at 6 dpf under setting [2] amounted to 3280 ± 560 ng/g. Also, the concentration at 6 dpf under setting [3] turned out to be 8770 ± 4310 ng/g. Where the note is “exposure Concentration 25.1 µM”, the “Dil Corrected Reported Conc. (fMole/larvae), measured tissue concentration” value was 643.192 fMole/larvae and 1721.28 fMole/larvae and 198.739 fMole/larvae and 224.57 fMole/larvae. The “Dil Corrected Reported Conc. (fMole/larvae), measured tissue concentration” value (exposure Concentration 44.8 µM) is 344.178 fMole/larvae and 504.145 fMole/larvae and 437.515 fMole/larvae and 553.638 fMole/larvae. The “Dil Corrected Reported Conc. (fMole/larvae), measured tissue concentration” value (exposure Concentration 80 µM) is 1323.26 fMole/larvae and 776.14 fMole/larvae and 638.759 fMole/larvae and 2174.95 fMole/larvae.
Turning to `O=S(=O)(O)C(F)(F)C(F)(F)C(F)(F)C(F)(F)C(F)(F)C(F)(F)F` [PFHxS, Perfluorohexanesulfonic acid], the BCFdry (nominal 14.0 μM, 0.4% DMSO) was found to be 11.82 L/kg; the BCFdry (nominal 25.1 μM, 0.4% DMSO) came to 8.01 L/kg; the BCFdry (nominal 44.8 μM, 0.4% DMSO) came out at 9.30 L/kg. Besides, the concentration at 6 dpf (nominal 14.0 μM daily 0–5 dpf, 0.4% DMSO) was found to be 107000 ± 50100 ng/g; the concentration at 6 dpf under setting [1] amounted to 129000 ± 31500 ng/g; the concentration at 6 dpf under setting [2] was 261000 ± 57200 ng/g. Besides, the “Dil Corrected Reported Conc. (fMole/larvae), measured tissue concentration” value (exposure Concentration 14 µM) is 8.83E+03 fMole/larvae and 1.94E+04 fMole/larvae and 6.95E+03 fMole/larvae and 7.88E+03 fMole/larvae; the “Dil Corrected Reported Conc. (fMole/larvae), measured tissue concentration” value (exposure Concentration 25.1 µM) was 1.35E+04 fMole/larvae and 1.76E+04 fMole/larvae and 8.93E+03 fMole/larvae and 1.16E+04 fMole/larvae; the “Dil Corrected Reported Conc. (fMole/larvae), measured tissue concentration” value (exposure Concentration 44.8 µM) is 2.76E+04 fMole/larvae and 3.50E+04 fMole/larvae and 2.15E+04 fMole/larvae and 2.07E+04 fMole/larvae.
Regarding `O=C(O)C(F)(F)C(F)(F)C(F)(F)C(F)(F)C(F)(F)C(F)(F)C(F)(F)F` [PFOA, Perfluoro-n-octanoic acid], the “Parent compound in fish tissue at 6 dpf” value (0.4% DMSO) is “detectable levels”. The BCFdry runs as follows: (nominal 25.1 μM, 0.4% DMSO) 11.68 L/kg; (nominal 44.8 μM, 0.4% DMSO) 6.52 L/kg; (nominal 80.0 μM, 0.4% DMSO) 5.17 L/kg. Also, the concentration at 6 dpf under setting [1] came to 116000 ± 25200 ng/g, the concentration at 6 dpf under setting [2] was 124000 ± 29900 ng/g and the concentration at 6 dpf under setting [3] was determined as 171000 ± 41100 ng/g. For the same molecule, the “Dil Corrected Reported Conc. (fMole/larvae), measured tissue concentration” value by setting is: (exposure Concentration 25.1 µM) 16735.5 fMole/larvae and 10378.2 fMole/larvae and 12074.8 fMole/larvae and 10012 fMole/larvae; (exposure Concentration 44.8 µM) 10919.7 fMole/larvae and 9223.5 fMole/larvae and 16062.6 fMole/larvae and 16554.8 fMole/larvae; (exposure Concentration 80 µM) 21852.9 fMole/larvae and 22967.7 fMole/larvae and 14850.1 fMole/larvae and 12804.3 fMole/larvae.

The values above are taken from paper PMC7228129, “Evaluation of Developmental Toxicity, Developmental Neurotoxicity, and Tissue Dose in Zebrafish Exposed to GenX and Other PFAS” (Environmental Health Perspectives, 2020).
